{"source": "patent US6815461B1", "about": "“Method of inhibiting retroviral integrase” (The University of North Carolina at Chapel Hill, priority 1994, dated 2004)", "key": {"Magic cells [1]": {"tested_on": "Magic cells", "assay": "Plating efficiency test", "assay_type": "cell-based", "settings": "at the concentrations at which anti-viral effects were observed", "method": "Next, a plating efficiency test measured the ability of the cell to grow after incubation with drug for a number of days. Magic cells were grown from an initial cell concentration of 0.8×104 with or without various concentrations of test compound for 6 days. Plating ability of the cells was assessed by plating dilutions of each culture on plastic. Colony forming units were determined after growth for two to four days by counting colonies after staining the plates. Each sample was plated in duplicate and the colony number averaged.\nAnother test of cellular effects by the compounds was a measure of plating efficiency of the cells after incubation with various concentrations of test agents. This will assess the actual killing of the cells by the drugs. The IC50 values are expected to be much higher in this test."}, "HIV-1 [2]": {"tested_on": "HIV-1", "assay": "Magic cell HIV-1 inhibition assay", "assay_type": "cell-based, HIV-1 strain HXB2", "settings": "Human immunodeficiency virus 1; Magic cells, infectious units with or without drug, 4 h pretreatment, read two days later", "method": "Cell lines used were CEM cells, a human T-cell lymphona cell line, A. Kaplan et al, J. Virol. 67, 4050-5 (1993), and Magic cells, J. Kimpton et al, J. Virol. 66, 2232-2239 (1992). The CEM cells were grown in RPM1-1640 medium supplemented with 5% FCS. The Magic Cells, a HELA derivative, were grown in DMEM/H supplemented with 5% FCS, G418 ([…]) and Hygromycin ([…]). The HIV isolate was strain HXB2, originally from Lee Ratner in the laboratory of Robert Gallo at the National Institutes of Health.\nThe magic cell assay described by Kimpton et al., supra, was used as described. This assay identifies individual cells infected with HIV-1 by the expression of tat, which transactivates an endogenous copy of the HIV-1 LTR linked to the lac2 reporter gene after integration, inducing β-galactosidase expression when x-gal is added to the cell medium. Any cell with integrated HIV-1 will turn blue. Thus, this assay provides a convenient way to determine the effect of HIV inhibitors at any early step up through the expression of tat, including the inhibition of integration.\nThe magic cells are plated in twelve-well plates one day prior to infection. The standard assay involves infection with approximately 200 infectious units of HIV-1. This gives an approximately 20 to 1 ratio of signal to background and sufficient numbers of infectious events to quantitate dim effects. The cells are pretreated with drug for 4 hours prior to virus infection, and virus adsorption takes place for 1 hour. The cells are washed with plain medium, and then medium with inhibitor is placed back on the cells. Two days later the cells are fixed after integration with x-gal, the indicator reagent for β-galactosidase production. The number of β-galactosidase expressing cells are quantitated by light microscopy.\nThe results of comparisons of infectious units with or without various concentrations of the bis-benzimididazoles drugs in the magic cell assay are expressed as IC50 values and are compiled in Table 2 above. Note that the best anti-HIV compounds (B-D) were also the best integrase inhibitors, except for compound A, which could not be accurately measured due to its substrate aggregating properties."}, "HIV-1 integrase": {"target": "T1, HIV-1 integrase (Human immunodeficiency virus type 1 group M subtype B, UniProt P04585)", "T1 construct": "using the integrase coding domain from the HXB2 clone of HIV-1 DNA; made in house; host or cells: E. coli", "assay": "Integrase inhibition assay (cleavage and strand transfer of 32P-labelled HIV-1 U5/U3 oligonucleotide substrate)", "assay_type": "biochemical", "method": "Integrase was overproduced in E. coli from an inducible plasmid containing the integrase sequence under control of a lacI-regulated T7 polymerase using the integrase coding domain from the HXB2 clone of HIV-1 DNA (L. Ratner et al, AIDS Res. Hum. Retroviruses 3, 57-69 (1987)), pT7fll-IN. A one liter culture at an O.D. of 0.6 was induced by the addition of IPTG to 0.5 mM. After three hours, the cells were harvested by centrifugation and the pellets were stored at −70° C.\nThe integrase protein was purified by a modification of the method of Sherman and Fyfe (P. Sherman et al, Proc. Natl. Acad. Sci. USA 87, 5119-23 (1990)). The cells were lysed by thawing in a buffer (50 mM Tris-HCl pH 7.5, 5 mM dithiothreitol, 1 mM EDTA, 1 mg/ml lysozyme) on ice at 6 ml/g bacterial pellet for 30 minutes, and then incubating at 37° C. for 5 minutes. The lysate was centrifuged at 12,000×g for one hour. The pellets were resuspended in 50 mM Tris-HCl, pH 7.5, 1 mM dithiothreitol, 1 mM EDTA, 1 M NaCl (4 ml/g original bacteria). The homogenate was stirred for 30 minutes at 4° C. and recentrifuged for 30 minutes at 12,000×g.\nThe supernatant was made 0.8 M in ammonium sulfate by the slow addition of powder with stirring over a 30 minute period. The extract was then centrifuged to remove any precipitate and applied to a phenyl sepharose column. After a 50 ml wash with high salt buffer (50 mM Tris-HCl, 1 mM EDTA, 5 mM DTT, 2 M NaCl), the protein was eluted with a gradient from high salt to O salt buffer containing 10% (weight/vol) glycerol and further purified through a G75 Sephadex column to remove background nuclease. A one liter culture generates enough integrase activity to perform over a thousand drug inhibition assays.\nCleavage of specific sites is assessed as described in Sherman et al., supra, except that the assay buffer was the same as that reported by Chow et al, Science 255, 723-6 (1992). Single 20 mer oligonucleotides corresponding to either the U5 or U3 ends of HIV-1 are end-labeled with ^32P, annealed with its complement, purified, and used under the same conditions as described above for the endonuclease assay. Reaction products are denatured with formamide, electrophoresed through 20% denaturing polyacrylamide gels and visualized by autoradiography. Both cleavage and ligation activity can be assessed from one gel. To assess the ligation activity alone, “precleaved” substrate that had the −2 cleavage artificially produced by using a radiolabelled 18 mer oligonucleotide was also used for some experiments.\nIntegrase overproduced in E. coli was purified as described above in accordance with Sherman et al, supra, and used in drug inhibition assays. […] Dilutions of the inhibitor compounds described in Example 1 above were mixed with substrate before the addition of enzyme. The Assay was the same as described in Example 2 and used the substrate described in Example 2. Each assay was performed in duplicate. Radioactivity in bands on dried gels were quantitated with a Phosphor imager to assess drug effects on both the cleavage, nuclease, and ligation products. The IC50 values for integrase inhibition were calculated for both the cleaving and joining parts of the integrase reaction after determining the % inhibition of the control reaction for a series of drug concentrations. Compounds A, B, C, and D had similar effects on integrase activity. Compound A, however, caused aggregation of the substrate starting at relatively low concentrations (10 μM), complicating its assessment."}, "HIV-1 [3]": {"tested_on": "HIV-1", "assay": "Standard reinfection assay of antiviral activity", "assay_type": "cell-based", "settings": "Human immunodeficiency virus 1", "method": "In addition, the assessment of antiviral activity as measured by the standard reinfection assay was performed for compound B. The IC50 for compound B in this assay was 10-30 μM. This confirms that the Magic cell assay is suitable for screening potential integrase inhibitors with good antiviral activity."}, "Magic cells [4]": {"tested_on": "Magic cells", "assay": "Toxicity assay (XTT) on the cell lines used to measure virus infectivity", "assay_type": "cell-based", "settings": "human, 2 days", "method": "(§1) Three different toxicity tests were performed on the cell lines used to measure virus infectivity.\n(§2) The initial test for toxicity utilized the XTT Assay as described by Weislow et al, J. Natl. Cancer Inst. 81, 577-586 (1989). This is the standard assay used originally to measure cell toxicity by potential reverse transcriptase inhibitors. Briefly, cells were grown to cells/ml and drug dilutions were added to the medium. After two days incubation, XTT reagent is added and incubation is continued for 4 h at 37° C. Following incubation, the plates are read at 450 minus 650 nm (the 650 value is the backround value which is automatically subtracted) with controls of media+XTT reagent without cells, and cells+media without reagent. Also a control of cells+media+XTT reagent was run for each plate. Medium without phenol red was employed to minimize background color as the XTT reagent goes from colorless (unreduced) to orange (reduced). The XTT reagent was freshly prepared on the day of assay as follows: 1 mg/ml of XTT in […] phenazine methosulfate. The phenazine methosulfate solution was prepared ahead of time and stored at 4° C. in a dark bottle. The XTT reagent is added to the microtiter wells at 24 ul per 100 ul of medium. The O.D. was measured on a Vmax plate reader from Molecular Devices Co. with data reduction. Results are expressed as percent of untreated controls. The least toxic compounds were Compounds A, B, and F with toxicities values at 500 μM or greater.\n(§3) The third test for cell toxicity assessed growth rate in the presence of the test compound versus a control culture. Magic cells were grown over a period of 15 days with or without various dilutions of test compound. Aliquots were removed every other day and the cells were counted in a hemocytometer. The results are set forth in FIG. 2 herein (see also Table 2 below)."}, "[5]": {"assay": "Toxicity assay (XTT) on the cell lines used to measure virus infectivity", "assay_type": "cell-based", "settings": "human", "method": "as §1, §2, §3"}, "Magic cells [6]": {"tested_on": "Magic cells", "assay": "Growth rate in the presence of test compound", "assay_type": "cell-based", "method": "as §3\nThe most sensitive test employed measurements of growth rates for the cells in the presence of the test compound. Although the anti-viral assay used was one that assessed early times of the viral life cycle, this test was carried out for 15 days, with counting of cell numbers in cultures performed every other day during this time."}, "[7]": {"settings": "Integrase Cleavage IC50, % cleavage of the substrate compared to control"}, "[8]": {"settings": "Integrase Strand Transfer IC50, joining part of the integrase reaction"}}, "note": "pIC50: −log10 of the molar value. Like-named read-outs stand apart in the source and are kept apart here."}
{"smiles": "CC(C)NC(=N)c1ccc2nc(C=Cc3nc4ccc(C(=N)NC(C)C)cc4[nH]3)[nH]c2c1", "note": "[Compound B, 1,2-bis[5-isopropylamidino-2-benzimidazolyl]ethene]", "values": [{"measurement": "Effect on Magic cell plating efficiency", "setting": "Magic cells [1]", "value": "no effect"}, {"measurement": "pIC50", "setting": "HIV-1 [2]", "value": "4.52 to 5.00"}, {"measurement": "pIC50", "setting": "HIV-1 integrase; [7]", "value": 4.21}, {"measurement": "pIC50", "setting": "HIV-1 integrase; [8]", "value": 4.72}, {"measurement": "pIC50", "setting": "HIV-1 [3]", "value": "4.52 to 5.00"}, {"measurement": "XTT assay toxicity value", "setting": "Magic cells [4]", "value": "≥ 500", "unit": "µM"}, {"measurement": "IC50 at 2 days", "setting": "[5]", "value": 473, "unit": "µM"}, {"measurement": "Effect on growth rate of the cell line", "setting": "Magic cells [6]; concentration that inhibited 50% of the viral integration events, up to two weeks", "value": "no effect on the growth rate"}, {"measurement": "Effect on growth rate of the cells", "setting": "Magic cells [6]; higher concentrations, 15 days test", "value": "did effect the growth rate"}]}
{"smiles": "N=C(N)c1ccc2[nH]c(Cc3nc4cc(C5=NCCN5)ccc4[nH]3)nc2c1", "note": "[E, (5-Amidino-2-benzimidazolyl)-(5′-(2-imidazolinyl)-2′-benzimidazolyl)methane]", "values": [{"measurement": "pIC50", "setting": "HIV-1 [2]", "value": 4.80}, {"measurement": "pIC50", "setting": "HIV-1 integrase; [7]", "value": "< 4.00"}, {"measurement": "pIC50", "setting": "HIV-1 integrase; [8]", "value": 3.91}, {"measurement": "IC50 at 2 days", "setting": "[5]", "value": 65, "unit": "µM"}]}
{"smiles": "N=C(N)c1ccc2nc(C=Cc3nc4ccc(C(=N)N)cc4[nH]3)[nH]c2c1", "note": "[Compound A, 1,2-bis[5-amidino-2-benzimidazolyl]ethene]", "values": [{"measurement": "pIC50", "setting": "HIV-1 [2]", "value": 4.32}, {"measurement": "pIC50", "setting": "HIV-1 integrase; [7]", "value": 4.96}, {"measurement": "pIC50", "setting": "HIV-1 integrase; [8]", "value": 4.94}, {"measurement": "Concentration at which aggregation of the substrate starts", "setting": "HIV-1 integrase; integrase assay substrate", "value": 10, "unit": "µM"}, {"measurement": "XTT assay toxicity value", "setting": "Magic cells [4]", "value": "≥ 500", "unit": "µM"}, {"measurement": "IC50 at 2 days", "setting": "[5]", "value": "> 500", "unit": "µM"}]}
{"smiles": "N=C(N)c1ccc2nc(Cc3nc4ccc(C(=N)N)cc4[nH]3)[nH]c2c1", "note": "[D, bis[5-amidino-2-benzimidazolyl]methane]", "values": [{"measurement": "pIC50", "setting": "HIV-1 [2]", "value": 5.15}, {"measurement": "IC50 at 2 days", "setting": "[5]; Magic cells, read-out: Magic Cells Toxicity IC50", "value": 175, "unit": "µM"}]}
